Laboratory results reported in patent US20250179047A1, “5-[7-(3,4-DIHYDRO-1H-ISOQUINOLINE-2-CARBONYL)-1,2,3,4 TETRAHYDROISOQUINOLIN-6-YL]-1H-PYRROLE-3-CARBOXAMIDE DERIVATIVES, PHARMACEUTICAL COMPOSITIONS CONTAINING THEM AND THEIR USES AS PRO-APOPTOTIC AGENTS” (LES LABORATOIRES SERVIER, priority 2022, published 2025).
Read-outs that look alike come from different tables or passages of the source.

Key:
[1] = target: BCL2 WT (Homo sapiens (Human), UniProt P10415); test: TR-FRET competitive binding assay, BCL2 WT
How it was run: (§1)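 Ki derived from IC50 (11-point dilution, 520/495 nm emission ratio) for displacing a fluorescein-labelled PUMA peptide (2 or 20 nM). Target was 0.5 nM E. coli-expressed Halo-tagged BCL2 (1-207) or BCLXL (2-196), terbium-labelled on Halo. Incubation 2 h at 23°C in pH 7.5 Hepes with 150 mM NaCl and 5% DMSO.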

[2] = target: BCLXL WT (Homo sapiens (Human), UniProt Q07817); test: TR-FRET competitive binding assay, BCLXL WT; settings: for Ki: BCLXL WT, Ki determined from IC50, read-out: TR_FRET EKI BclxL; for TR_FRET EKI BCLxL/WT selectivty: ratio of Ki BCLxL to BCL2 WT
Sequence of BCLXL WT (Q07817 other isoform, or with tags, fused parts or gaps): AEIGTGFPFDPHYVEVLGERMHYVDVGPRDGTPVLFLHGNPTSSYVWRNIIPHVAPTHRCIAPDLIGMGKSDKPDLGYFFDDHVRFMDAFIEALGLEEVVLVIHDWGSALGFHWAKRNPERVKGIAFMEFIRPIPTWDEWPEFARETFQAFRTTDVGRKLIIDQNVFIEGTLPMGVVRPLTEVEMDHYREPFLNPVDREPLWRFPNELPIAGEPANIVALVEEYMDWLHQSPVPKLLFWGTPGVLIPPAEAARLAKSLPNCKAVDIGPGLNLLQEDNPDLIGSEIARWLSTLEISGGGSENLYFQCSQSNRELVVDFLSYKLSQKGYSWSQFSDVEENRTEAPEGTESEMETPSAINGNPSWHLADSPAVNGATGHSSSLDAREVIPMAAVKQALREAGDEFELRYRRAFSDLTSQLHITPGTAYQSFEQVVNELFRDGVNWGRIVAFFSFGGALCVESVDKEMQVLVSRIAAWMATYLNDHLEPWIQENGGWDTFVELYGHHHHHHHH
How it was run: as §1

[3] = tested on: KMS-12-PE Bcl-2 WT; test: In vitro cytotoxicity CellTiter-Glo 48 h, KMS-12-PE Bcl-2 WT; assay type: cell-based; settings: Homo sapiens, KMS-12-PE, C50 = concentration needed to reach 50% of the cellular viability
How it was run: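 Potency is expressed as C50, the compound concentration at which viability of engineered KMS-12-PE cells (Bcl-2 wild type or G101V) falls to 50%, determined from CellTiter-Glo luminescence after 48 h of treatment over 11 concentrations.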

[4] = target: BCL2 D103Y (Homo sapiens, UniProt P10415, D103Y); test: TR-FRET competitive binding assay, BCL2 D103Y; settings: Ki determined from IC50, read-out: TR_FRET EKI_Bcl2 D103Y
How it was run: as §1

[5] = tested on: BCL2 G101V; test: TR-FRET competitive binding assay, BCL2 G101V; parameters: species or system human; settings: for TR_FRET EKI G101V/WT selectivty: ratio of Ki BCL2 G101V to BCL2 WT
How it was run: as §1

[6] = target: BCL2 G101V (Homo sapiens, UniProt P10415, G101V); test: TR-FRET competitive binding assay, BCL2 G101V; settings: BCL2 G101V; Ki determined from IC50; read-out: TR_FRET EKI_Bcl2 G101V
How it was run: as §1

[7] = Ki determined from IC50, read-out: TR_FRET EKI_Bcl2

Compound	Ki ([1]; Ki determined from IC50, read-out: TR_FRET EKI_Bcl2 WT)	Ki [2]	TR_FRET EKI BCLxL/WT selectivty ratio ([2]; ratio Ki BCLxL / Ki BCL2 WT)	IC50 [3]	Ki [4]	TR_FRET EKI G101V/WT selectivty ratio ([5]; ratio Ki BCL2 G101V / Ki BCL2 WT)	Ki [6]	Ki [1, 7]	TR_FRET EKI BCLxL/WT selectivty [2]	TR_FRET EKI G101V/WT selectivty [5]
Cc1nn(C)cc1N(C(=O)c1cc(-c2cc3c(cc2C(=O)N2Cc4ccccc4C[C@H]2C)CN(C(=O)Cc2ccc(OCCN(C)C)cc2F)CC3)n(C)c1C)c1ccccc1 [Example 222, 5-[2-[2-[4-[2-(dimethylamino)ethoxy]-2-fluoro-phenyl]acetyl]-7-[(3R)-3-methyl-3,4-dihydro-1H-isoquinoline-2-carbonyl]-3,4-dihydro-1H-isoquinolin-6-yl]-N-(1,3-dimethylpyrazol-4-yl)-1,2-dimethyl-N-phenyl-pyrrole-3-carboxamide]	0.09 nM	12.5 nM	138.9	0.055 µM	0.19 nM	69.6	6.3 nM			
Cc1c(C(=O)N(c2ccccc2)c2cc(F)cc(C#N)c2)cc(-c2cc3c(cc2C(=O)N2Cc4ccccc4C[C@H]2C)CN(C(=O)Cc2ccc(OCCN4CCOCC4)cc2)CC3)n1C [Example 226, N-(3-cyano-5-fluoro-phenyl)-1,2-dimethyl-5-[7-[(3R)-3-methyl-3,4-dihydro-1H-isoquinoline-2-carbonyl]-2-[2-[4-(2-morpholinoethoxy)phenyl]acetyl]-3,4-dihydro-1H-isoquinolin-6-yl]-N-phenyl-pyrrole-3-carboxamide]		41.8 nM		0.0365 µM	0.76 nM		8.4 nM	0.26 nM	160.8	32.2
Cc1c(C(=O)N(c2ccccc2)c2cc(F)cc(C#N)c2)cc(-c2cc3c(cc2C(=O)N2Cc4ccccc4C[C@H]2C)CN(C(=O)Cc2ccc(OCCN4CCOCC4)cc2F)CC3)n1C [Example 227, N-(3-cyano-5-fluoro-phenyl)-5-[2-[2-[2-fluoro-4-(2-morpholinoethoxy)phenyl]acetyl]-7-[(3R)-3-methyl-3,4-dihydro-1H-isoquinoline-2-carbonyl]-3,4-dihydro-1H-isoquinolin-6-yl]-1,2-dimethyl-N-phenyl-pyrrole-3-carboxamide]		37.2 nM		0.0254 µM	0.33 nM		10.8 nM	0.17 nM	219.1	63.7
Cc1c(C(=O)N(c2ccc(O)cc2)c2cnn(C)c2)cc(-c2cc3c(cc2C(=O)N2Cc4ccccc4C[C@H]2C)CN(C(=O)Cc2ccc(OCCN4CCOCC4)cc2F)CC3)n1C [Example 233]		2.74 nM		0.00694 µM	0.08 nM		0.32 nM	0.039 nM	70.3	8.2
Cc1c(N(C(=O)c2cc(-c3cc4c(cc3C(=O)N3Cc5ccccc5C[C@H]3C)CN(C(=O)Cc3ccc(OCCN5CCOCC5)cc3F)CC4)n(C)c2C)c2ccccc2)cc(C#N)n1C [Example 234]		3.68 nM		0.00221 µM	0.16 nM		0.76 nM	0.086 nM	42.8	8.9
Cc1c(C(=O)N(c2ccccc2)c2cnn(C)c2)cc(-c2cc3c(cc2C(=O)N2Cc4ccccc4C[C@H]2C)CN(C(=O)Cc2ccc(OCCC4CCN(C)CC4)cc2)CC3)n1C [Example 237]		1.7 nM		0.007 µM	0.057 nM		0.52 nM	0.032 nM	53.1	16.3
Cc1c(C(=O)N(c2ccccc2)c2cnn(C(F)F)c2)cc(-c2cc3c(cc2C(=O)N2Cc4ccccc4C[C@H]2C)CN(C(=O)Cc2ccc(OCCC4CCN(C)CC4)cc2)CC3)n1C [Example 238]		2.8 nM		0.00907 µM	0.13 nM		1.07 nM	0.064 nM	43.8	16.7
Cc1c(C(=O)N(c2ccccc2)c2cnn(C)c2)cc(-c2cc3c(cc2C(=O)N2Cc4ccccc4C[C@H]2C)CN(C(=O)Cc2ccc(OCCN(C)C)cc2F)CC3)n1C [Example 239]		4.3 nM		0.0128 µM	0.132 nM		5.25 nM	0.066 nM	65.2	79.5
